Measurements published in US10744173B2, “Traditional Chinese medicine compositions for alleviating stress” (Infinitus (China) Company Ltd., priority 2017, dated 2020).

Experiments:
Type in all cases: in vivo
[1] = system: corticotropin-releasing hormone (CRH); test: Neurotransmitter measurement by ELISA: CRH; details: trunk blood
Procedure: (§1) The rats were housed in individual cages with light and temperature control (temperature: 21±2° C.; lights on at 8:00 AM and off at 8:00 PM). Food and water were available ad libitum. All experimental procedures were carried out in strict accordance with the National Institutes of Health guidelines for care and use of experimental animals. After an initial habituation period of 1 week, all animals were given access to bottle containing a sucrose solution in tap water for 1 hour and were tested for the baseline data of the sucrose preference test. According to the baseline data, the animals were divided into 9 groups (n=10-12 animals/each group), that is the control group, the stressed group, the stressed+fluoxetine group, the stressed+Example 1 group, the stressed+ginseng extract group, the stressed+Radix paeoniae Alba extract group, the stressed+Tree Peony Bark extract group, the stressed+Sharpleaf Galangal Fruit extract group, and the stressed+Radix Polygonum multiflorum Preparata extract group. The animals were subjected to 2 to 5 different mild stressors per day for 5 weeks. The mild stressors included water and food deprivation, cage tilt, continuously lighting, cage soiling, stroboscopic lighting, restricted access to food, and tail pinching. Control animals were not subjected to the stress protocol, and the stressed animals were subjected to the mild stressors and given the same amount of water as control group. The animals of the stressed+fluoxetine group were subjected to the mild stressors and treated with fluoxetine capsules. The animals of the stressed+Example 1 group were subjected to the mild stressors and treated with the composition of Example 1. The animals of the stressed+single extract group were subjected to the mild stressors and treated with the single extract.
(§2) The rats were sacrificed and the trunk blood was collected into the collection tubes coated with standard heparin. […] The levels of corticotropin-releasing hormone (CRH), adrenocorticotropic hormone (ACTH) and cortisol (CORT) were detected by ELISA. […]

[2] = system: chronically stressed rats; test: Sucrose preference test in chronically stressed rats
Procedure: as §1
The rats could select between two bottles of liquid freely, one with 0.8% sucrose solution and one with tap water, after 23 h food and water deprivation. To avoid the rats prefer to drink one side of the water, the position of the two bottles were exchanged every half an hour. Tap water consumption and sucrose consumption were measured by weighting the bottles, and the sucrose preference were calculated based on the following formula: […]
The rats were housed in individual cages with light and temperature control (temperature: 21±2° C.; lights on at 8:00 AM and off at 8:00 PM). Food and water were available ad libitum. All experimental procedures were carried out in strict accordance with the National Institutes of Health guidelines for care and use of experimental animals. After an initial habituation period of 1 week, all animals were given access to bottle containing a sucrose solution in tap water for 1 hour and were tested for the baseline data of the sucrose preference test. […]

[3] = system: adrenocorticotropic hormone (ACTH); test: Neurotransmitter measurement by ELISA: ACTH; details: trunk blood
Procedure: as §1, §2

[4] = system: cortisol (CORT); test: Neurotransmitter measurement by ELISA: CORT; details: trunk blood
Procedure: as §1, §2

[5] = system: CRH, ACTH and CORT; test: Neurotransmitter measurement, overall statement on CRH, ACTH and CORT; details: chronically stressed rats
Procedure: The rats were housed in individual cages with light and temperature control (temperature: 21±2° C.; lights on at 8:00 AM and off at 8:00 PM). Food and water were available ad libitum. All experimental procedures were carried out in strict accordance with the National Institutes of Health guidelines for care and use of experimental animals. After an initial habituation period of 1 week, all animals were given access to bottle containing a sucrose solution in tap water for 1 hour and were tested for the baseline data of the sucrose preference test. According to the baseline data, the animals were divided into 9 groups (n=10-12 animals/each group), that is the control group, the stressed group, the stressed+fluoxetine group, the stressed+Example 1 group, the stressed+ginseng extract group, the stressed+Radix paeoniae Alba extract group, the stressed+Tree Peony Bark extract group, the stressed+Sharpleaf Galangal Fruit extract group, and the stressed+Radix Polygonum multiflorum Preparata extract group. The animals were subjected to 2 to 5 different mild stressors per day for 5 weeks. […]
as §2

[6] = Comparative study (Comparative Examples 1-7), chronically stressed rats
[7] = Experimental Example 1, chronically stressed rats
[8] = Experimental Example 2, chronically stressed rats

SMILES: CNCCC(Oc1ccc(C(F)(F)F)cc1)c1ccccc1 (centres unmarked) [fluoxetine]
- CRH [1, 6]: 5.11 ± 0.29 ng/mL
- CRH [1, 7]: 5.13 ± 0.25 ng/mL
- CRH [1, 8]: 5.13 ± 0.25 ng/mL
- Sucrose Preference ([2]; Comparative study (Comparative Example 1-7), mild stressors for 5 weeks, 0.8% sucrose vs tap water): 0.7502 ± 0.0471
- Sucrose Preferenc ([2]; Experimental Example 1, mild stressors for 5 weeks, 0.8% sucrose vs tap water): 0.7431 ± 0.0565
- Sucrose Preference ([2]; Experimental Example 2, mild stressors for 5 weeks, 0.8% sucrose vs tap water): 0.7431 ± 0.0565
- Change of sucrose preference compared with the stressed group (in words) ([2]; compared with the stressed group): significantly increase the sucrose preference
- ACTH [3, 6]: 32.73 ± 2.66 pg/mL
- ACTH [3, 7]: 33.83 ± 2.26 pg/mL
- ACTH [3, 8]: 33.83 ± 2.26 pg/mL
- CORT [4, 6]: 52.46 ± 6.05 ng/mL
- CORT [4, 7]: 52.09 ± 5.95 ng/mL
- CORT [4, 8]: 52.09 ± 5.95 ng/mL
- Effect on the abnormal levels of CRH, ACTH and CORT caused by chronic stress (in words) [5]: improve the abnormal levels of CRH, ACTH and CORT
